These results are taken from publication PMC6138237, “Machine intelligence decrypts β-lapachone as an allosteric 5-lipoxygenase inhibitor” (Chemical Science, 2018).

Read-outs that look alike come from different tables or passages of the source. Some results are limits rather than exact numbers.

For one experiment, the target named is T1, IRAK4 (Homo sapiens, UniProt Q9NWZ3).
T1 sequence (Q9NWZ3 1-460): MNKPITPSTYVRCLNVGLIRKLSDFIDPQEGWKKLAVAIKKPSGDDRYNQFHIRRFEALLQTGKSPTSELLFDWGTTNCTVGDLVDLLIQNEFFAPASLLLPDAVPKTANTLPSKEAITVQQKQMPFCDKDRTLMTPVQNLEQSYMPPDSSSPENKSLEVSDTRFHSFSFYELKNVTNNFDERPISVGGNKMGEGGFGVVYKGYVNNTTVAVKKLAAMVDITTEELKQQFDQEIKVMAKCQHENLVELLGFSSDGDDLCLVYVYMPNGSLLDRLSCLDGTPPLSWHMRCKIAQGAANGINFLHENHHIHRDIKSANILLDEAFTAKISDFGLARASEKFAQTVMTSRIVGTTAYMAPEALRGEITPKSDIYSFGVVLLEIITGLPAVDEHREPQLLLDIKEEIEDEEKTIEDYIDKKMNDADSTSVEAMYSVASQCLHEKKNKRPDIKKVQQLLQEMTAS
Put plainly: ExpresS Diversity Kinase Profile, Cerep (LANCE): IRAK4. It is filed as biochemical.

In another experiment the target is T2, AurA (Homo sapiens, UniProt O14965).
T2 sequence (O14965 1-403): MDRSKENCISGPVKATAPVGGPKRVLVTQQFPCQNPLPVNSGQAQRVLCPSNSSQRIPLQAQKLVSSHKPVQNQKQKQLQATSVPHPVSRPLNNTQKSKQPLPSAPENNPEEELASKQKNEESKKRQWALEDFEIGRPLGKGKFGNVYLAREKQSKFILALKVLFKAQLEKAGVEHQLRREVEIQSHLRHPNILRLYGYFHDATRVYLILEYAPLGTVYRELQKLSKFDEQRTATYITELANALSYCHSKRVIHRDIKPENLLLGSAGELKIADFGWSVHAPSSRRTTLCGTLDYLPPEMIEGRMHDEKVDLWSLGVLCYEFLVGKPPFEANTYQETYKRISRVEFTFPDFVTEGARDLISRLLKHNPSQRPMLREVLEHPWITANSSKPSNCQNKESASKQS
Put plainly: ExpresS Diversity Kinase Profile, Cerep (LANCE): AurA. It is filed as biochemical.

In the next experiment the target is EphA2 (Homo sapiens, UniProt P29317). In words: ExpresS Diversity Kinase Profile, Cerep (LANCE): EphA2. It is filed as biochemical.
Sequence of EphA2 (P29317 24-976): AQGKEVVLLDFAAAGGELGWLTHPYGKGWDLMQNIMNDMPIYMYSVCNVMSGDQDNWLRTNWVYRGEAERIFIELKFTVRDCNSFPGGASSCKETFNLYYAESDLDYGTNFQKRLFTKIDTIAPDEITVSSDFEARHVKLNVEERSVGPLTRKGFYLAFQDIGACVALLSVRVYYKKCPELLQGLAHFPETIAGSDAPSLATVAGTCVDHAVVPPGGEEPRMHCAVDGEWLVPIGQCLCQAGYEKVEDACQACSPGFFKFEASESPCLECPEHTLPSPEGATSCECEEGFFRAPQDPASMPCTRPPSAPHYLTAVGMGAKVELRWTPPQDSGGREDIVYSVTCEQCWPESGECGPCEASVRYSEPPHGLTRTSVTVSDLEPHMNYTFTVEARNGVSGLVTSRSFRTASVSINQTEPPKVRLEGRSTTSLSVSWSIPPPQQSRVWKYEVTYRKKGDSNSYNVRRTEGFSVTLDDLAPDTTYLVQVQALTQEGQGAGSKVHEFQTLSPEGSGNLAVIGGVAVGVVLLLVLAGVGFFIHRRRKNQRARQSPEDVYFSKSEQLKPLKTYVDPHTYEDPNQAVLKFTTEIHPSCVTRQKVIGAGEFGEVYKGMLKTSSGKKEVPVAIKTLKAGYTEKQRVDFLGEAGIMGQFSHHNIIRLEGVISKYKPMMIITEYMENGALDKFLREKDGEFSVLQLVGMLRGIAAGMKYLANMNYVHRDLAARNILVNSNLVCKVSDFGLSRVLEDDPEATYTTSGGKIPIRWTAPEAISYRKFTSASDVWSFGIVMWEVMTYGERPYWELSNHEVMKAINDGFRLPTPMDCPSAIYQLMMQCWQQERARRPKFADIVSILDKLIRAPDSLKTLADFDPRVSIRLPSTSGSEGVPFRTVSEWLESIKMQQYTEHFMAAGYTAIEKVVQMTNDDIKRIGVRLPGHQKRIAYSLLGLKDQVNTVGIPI
For the next experiment, the target named is PKA (Homo sapiens, UniProt P17612). Put plainly: ExpresS Diversity Kinase Profile, Cerep (LANCE): PKA. The experiment is classed as biochemical.
The next experiment has as its target T3, PDK1 (Homo sapiens, UniProt O15530).
T3 sequence (O15530 1-556): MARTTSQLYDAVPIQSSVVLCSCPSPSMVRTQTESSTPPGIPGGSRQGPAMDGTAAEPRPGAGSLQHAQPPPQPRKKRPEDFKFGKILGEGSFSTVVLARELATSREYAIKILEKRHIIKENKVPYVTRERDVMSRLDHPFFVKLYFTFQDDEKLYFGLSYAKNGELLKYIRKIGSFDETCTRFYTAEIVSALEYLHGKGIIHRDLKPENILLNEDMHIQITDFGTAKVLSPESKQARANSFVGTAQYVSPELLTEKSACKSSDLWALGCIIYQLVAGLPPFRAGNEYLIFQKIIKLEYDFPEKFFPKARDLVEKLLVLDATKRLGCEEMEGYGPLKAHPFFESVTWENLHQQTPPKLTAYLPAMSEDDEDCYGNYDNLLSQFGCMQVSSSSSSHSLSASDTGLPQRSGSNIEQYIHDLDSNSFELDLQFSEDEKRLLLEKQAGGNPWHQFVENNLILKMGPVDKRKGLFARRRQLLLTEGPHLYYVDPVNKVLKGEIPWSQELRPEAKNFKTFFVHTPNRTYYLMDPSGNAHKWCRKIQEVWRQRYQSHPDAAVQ
In words: ExpresS Diversity Kinase Profile, Cerep (LANCE): PDK1. It is filed as biochemical.

For another experiment, the target named is MAP4K4 (Homo sapiens, UniProt O95819). In words: ExpresS Diversity Kinase Profile, Cerep (LANCE): MAP4K4. It is filed as biochemical.
Sequence of MAP4K4 (O95819 whole entry): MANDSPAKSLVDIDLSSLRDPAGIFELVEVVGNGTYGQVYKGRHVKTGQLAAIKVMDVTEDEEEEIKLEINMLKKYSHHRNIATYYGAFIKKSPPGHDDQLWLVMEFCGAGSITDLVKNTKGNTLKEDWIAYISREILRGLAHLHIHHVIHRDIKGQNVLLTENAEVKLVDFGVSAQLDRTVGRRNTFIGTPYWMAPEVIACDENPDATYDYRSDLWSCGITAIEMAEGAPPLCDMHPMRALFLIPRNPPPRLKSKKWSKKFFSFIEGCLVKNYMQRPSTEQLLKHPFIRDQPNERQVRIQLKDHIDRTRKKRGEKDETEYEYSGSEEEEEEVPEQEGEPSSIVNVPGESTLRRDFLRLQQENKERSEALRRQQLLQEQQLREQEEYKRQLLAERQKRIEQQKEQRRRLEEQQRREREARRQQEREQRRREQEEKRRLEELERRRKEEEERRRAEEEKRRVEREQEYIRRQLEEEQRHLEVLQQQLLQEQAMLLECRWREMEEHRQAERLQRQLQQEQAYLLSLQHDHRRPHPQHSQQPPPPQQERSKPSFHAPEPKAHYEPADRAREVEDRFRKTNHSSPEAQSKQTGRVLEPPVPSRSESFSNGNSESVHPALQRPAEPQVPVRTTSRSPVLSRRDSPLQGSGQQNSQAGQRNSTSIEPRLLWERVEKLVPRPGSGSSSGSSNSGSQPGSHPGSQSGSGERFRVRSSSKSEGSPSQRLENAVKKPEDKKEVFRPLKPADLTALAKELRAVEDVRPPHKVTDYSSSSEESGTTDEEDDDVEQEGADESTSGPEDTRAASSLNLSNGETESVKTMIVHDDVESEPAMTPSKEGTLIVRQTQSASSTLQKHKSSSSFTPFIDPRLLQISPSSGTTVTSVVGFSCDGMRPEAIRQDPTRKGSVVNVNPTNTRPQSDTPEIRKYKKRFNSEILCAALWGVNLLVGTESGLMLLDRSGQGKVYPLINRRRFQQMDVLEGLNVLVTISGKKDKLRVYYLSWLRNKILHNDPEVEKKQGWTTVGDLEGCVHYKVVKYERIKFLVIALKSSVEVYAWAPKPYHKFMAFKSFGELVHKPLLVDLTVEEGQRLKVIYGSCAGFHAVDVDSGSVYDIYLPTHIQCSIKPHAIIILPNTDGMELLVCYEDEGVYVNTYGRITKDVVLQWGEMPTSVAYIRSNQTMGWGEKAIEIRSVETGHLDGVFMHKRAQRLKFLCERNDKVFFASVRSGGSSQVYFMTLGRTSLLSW
The target in the next experiment is T4, EP3 (Homo sapiens, UniProt P43115).
T4 sequence (P43115 1-390): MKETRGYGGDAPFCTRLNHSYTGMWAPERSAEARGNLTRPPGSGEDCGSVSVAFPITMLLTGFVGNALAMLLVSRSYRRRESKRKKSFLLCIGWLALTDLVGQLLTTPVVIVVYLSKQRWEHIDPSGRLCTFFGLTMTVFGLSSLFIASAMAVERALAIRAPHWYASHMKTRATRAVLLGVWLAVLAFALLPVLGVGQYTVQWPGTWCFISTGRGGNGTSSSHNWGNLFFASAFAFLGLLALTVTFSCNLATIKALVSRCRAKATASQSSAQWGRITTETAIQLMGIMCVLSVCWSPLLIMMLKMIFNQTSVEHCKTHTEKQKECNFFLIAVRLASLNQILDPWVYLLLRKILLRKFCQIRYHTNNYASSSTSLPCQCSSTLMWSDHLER
Put plainly: EP3 functional antagonist assay, Cerep (sulprostone 0.1 nM, impedance).

The target in a further experiment is GSK3β (Homo sapiens, UniProt P49841). Put plainly: ExpresS Diversity Kinase Profile, Cerep (LANCE): GSK3β. It is filed as biochemical.
Sequence of GSK3β (P49841 whole entry): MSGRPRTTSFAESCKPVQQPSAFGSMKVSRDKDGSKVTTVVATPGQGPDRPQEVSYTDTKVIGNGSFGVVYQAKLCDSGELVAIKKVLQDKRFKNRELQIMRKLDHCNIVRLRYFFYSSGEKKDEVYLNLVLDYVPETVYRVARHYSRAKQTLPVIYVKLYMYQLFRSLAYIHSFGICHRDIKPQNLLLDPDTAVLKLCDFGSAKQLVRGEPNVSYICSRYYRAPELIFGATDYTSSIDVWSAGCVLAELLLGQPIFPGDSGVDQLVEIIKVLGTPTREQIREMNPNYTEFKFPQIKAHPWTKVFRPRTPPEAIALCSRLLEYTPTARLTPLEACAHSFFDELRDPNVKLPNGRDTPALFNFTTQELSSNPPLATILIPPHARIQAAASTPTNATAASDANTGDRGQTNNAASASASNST
The next experiment deals with PDE5 (Homo sapiens, UniProt O76074). In words: Phosphodiesterase 5 inhibition assay, Cerep (scintillation counting). The experiment is classed as biochemical. The settings on record: for percent inhibition at 2 µM: PDE5.
The next experiment concerns Escherichia coli K12. In words: Minimum inhibitory concentration assay, Escherichia coli. As to conditions: concentrations up to 50 µM.
A further experiment has as its target FGFR1 (Homo sapiens, UniProt P11362). Put plainly: ExpresS Diversity Kinase Profile, Cerep (LANCE): FGFR1. It is filed as biochemical.
Setting [1] is: n = 2, read-out: % Inhibition of control values, Mean.
The mark [2] stands for this setting: read-out: % Inhibition of control values, 1st measurement.
[3] abbreviates: read-out: % Inhibition of control values, 2nd measurement.
The mark [4] stands for this setting: Flag: Interference, read-out: % Inhibition of control values, 1st measurement.
The mark [5] stands for this setting: Flag: Interference, read-out: % Inhibition of control values, 2nd measurement.
The mark [6] stands for this setting: n = 2, Flag: Interference, read-out: % Inhibition of control values, Mean.

Sequence of FGFR1 (P11362 22-822): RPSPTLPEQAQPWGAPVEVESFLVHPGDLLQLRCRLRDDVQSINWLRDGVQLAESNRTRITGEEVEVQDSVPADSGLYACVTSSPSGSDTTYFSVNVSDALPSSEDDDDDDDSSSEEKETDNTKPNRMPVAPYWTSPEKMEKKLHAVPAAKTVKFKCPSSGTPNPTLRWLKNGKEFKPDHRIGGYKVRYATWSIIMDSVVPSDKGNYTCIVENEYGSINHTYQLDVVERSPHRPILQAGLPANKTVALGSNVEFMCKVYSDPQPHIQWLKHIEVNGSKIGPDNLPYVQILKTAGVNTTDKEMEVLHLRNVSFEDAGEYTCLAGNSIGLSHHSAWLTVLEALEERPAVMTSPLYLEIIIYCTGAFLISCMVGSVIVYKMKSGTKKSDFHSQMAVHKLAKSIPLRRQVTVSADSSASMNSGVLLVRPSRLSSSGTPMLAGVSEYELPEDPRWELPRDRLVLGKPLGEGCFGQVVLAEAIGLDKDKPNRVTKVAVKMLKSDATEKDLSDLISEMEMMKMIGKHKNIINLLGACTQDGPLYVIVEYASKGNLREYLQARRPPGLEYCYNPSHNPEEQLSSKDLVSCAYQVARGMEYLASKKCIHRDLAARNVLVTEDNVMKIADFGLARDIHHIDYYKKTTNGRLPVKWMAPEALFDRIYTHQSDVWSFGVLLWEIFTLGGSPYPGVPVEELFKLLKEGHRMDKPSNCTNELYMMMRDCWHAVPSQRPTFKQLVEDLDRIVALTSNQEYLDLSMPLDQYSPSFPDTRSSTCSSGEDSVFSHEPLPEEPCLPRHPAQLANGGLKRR

On to `CN[C@@H]1C[C@H]2O[C@@](C)([C@@H]1OC)n1c3ccccc3c3c4c(c5c6ccccc6n2c5c31)C(=O)NC4` [Staurosporine, reference compound], for which the nHill at IRAK4 (control) was 0.7; at AurA (control) it was 2.5; on EphA2 (control), 1.6; on PKA (control), over 3; at PDK1 (control) it was over 3; on MAP4K4 (control), 2.7.

`CC1(C)CCC2=C(O1)c1ccccc1C(=O)C2=O` [β-Lapachone] showed a Kb on EP3 of 22 µM. The “ligand efficiency (LE)” value on EP3 (EP3) came out at 0.36. For the same molecule, the IC50 at EP3 (Experimental –log(IC50 or KD), EP3) was 20 µM; against EP3 (IC50, EP3 concentration–inhibition curve, n = 2), 63 µM; on PDE5 it was over 10 µM. Further, the inhibition at 150 µM was 94.2% at GSK3β (setting [1]); 95% at GSK3β (setting [2]); 93.4% on GSK3β (setting [3]); 2.2% on IRAK4 (setting [1]); -1.2% at IRAK4 (setting [2]); 5.6% on IRAK4 (setting [3]). The inhibition at 150 µM is -16.5% on AurA (setting [4]); 0.2% at AurA (setting [5]); -8.1% on AurA (setting [6]); 63.7% at EphA2 (setting [4]); 63.5% at EphA2 (setting [5]); 63.6% at EphA2 (setting [6]). The inhibition at 150 µM was 51.5% on FGFR1 (setting [4]); 60.5% on FGFR1 (setting [5]); 56% at FGFR1 (setting [6]); -10.5% on PKA (setting [4]); -5.4% on PKA (setting [5]); -8% at PKA (setting [6]). The inhibition at 150 µM on PDK1 (setting [1]) was 1.4%; at PDK1 (setting [2]), 8.9%; at PDK1 (setting [3]) it was -6.1%; at MAP4K4 (setting [1]) it was 48.6%; on MAP4K4 (setting [2]), 47.7%; on MAP4K4 (setting [3]), 49.5%. Moreover, the percent inhibition at 2 µM on PDE5 (n = 2, read-out: % of control values, Mean) was -8.3%; at PDE5 (read-out: % of control values, 1st measurement), -6.9%; on PDE5 (read-out: % of control values, 2nd measurement), -9.7%. In addition, the “activity against PDE5” value on PDE5 (screening against phosphodiesterase 5) is recorded as “inactivity”. The “phenotypic effects on Escherichia coli” value in the experiment with Escherichia coli K12 is recorded as “No phenotypic effects”.
